Measurements as given in ChEMBL document CHEMBL1158725, “Microbial genomics as a guide to drug discovery and structural elucidation: ECO-02301, a novel antifungal agent, as an example” (2005).
Values after ≈ are worked out from the molar mass of the structure shown.

Experiments:
Format in all cases: functional
[1] = tested on: Saccharomyces cerevisiae; assay: Antifungal activity against Saccharomyces cerevisiae ATCC 9763 by broth dilution susceptibility test
[2] = tested on: Aspergillus fumigatus; assay: Antifungal activity against Aspergillus fumigatus ATCC 204305 by broth dilution susceptibility test
[3] = tested on: Candida tropicalis; assay: Antifungal activity against Candida tropicalis ATCC 200955 by broth dilution susceptibility test
[4] = tested on: Nakaseomyces glabratus; assay: Antifungal activity against Candida glabrata ATCC 90030 by broth dilution susceptibility test
[5] = tested on: Pichia kudriavzevii; assay: Antifungal activity against Candida krusei LSPQ 0309 by broth dilution susceptibility test
[6] = tested on: Cryptococcus neoformans; assay: Antifungal activity against Cryptococcus neoformans ATCC 32045 by broth dilution susceptibility test
[7] = tested on: Candida albicans; assay: Antifungal activity against Candida albicans ATCC 10231 by broth dilution susceptibility test
[8] = tested on: Clavispora lusitaniae; assay: Antifungal activity against Candida lusitaniae ATCC 200953 by broth dilution susceptibility test
[9] = tested on: Aspergillus flavus; assay: Antifungal activity against Aspergillus flavus ATCC 204304 by broth dilution susceptibility test

| Structure (SMILES) | MIC [1] | MIC [2] | MIC [3] | MIC [4] | MIC [5] | MIC [6] | MIC [7] | MIC [8] | MIC [9] |
| --- | --- | --- | --- | --- | --- | --- | --- | --- | --- |
| CC(/C=C/CC/C=C/C=C/C=C/C=C/C(=O)NC1=C(O)CCC1=O)C(O)C(C)C(O)/C=C/C=C/C=C/C=C/C=C/CC(O[C@@H]1O[C@@H](C)[C@H](O)[C@@H](O)[C@H]1O)C(C)C(=O)CC(O)CC(O)CC(O)/C=C/CC(O)CC(O)CC(O)CC(O)/C=C/CC(O)CC(O)CCCN (stereo in doubt) | 4 µg/mL (≈ 3.08 µM) | 16 µg/mL (≈ 12.3 µM) | 4 µg/mL (≈ 3.08 µM) | 4 µg/mL (≈ 3.08 µM) | 4 µg/mL (≈ 3.08 µM) | 4 µg/mL (≈ 3.08 µM) | 4 µg/mL (≈ 3.08 µM) | 4 µg/mL (≈ 3.08 µM) | ≥ 8 µg/mL |
| C[C@@H]1[C@H](O)[C@@H](C)/C=C/C=C/C=C/C=C/C=C/C=C/C=C/[C@H](O[C@@H]2O[C@H](C)[C@@H](O)[C@H](N)[C@@H]2O)C[C@@H]2O[C@](O)(C[C@@H](O)C[C@@H](O)[C@H](O)CC[C@@H](O)C[C@@H](O)CC(=O)O[C@H]1C)C[C@H](O)[C@H]2C(=O)O [AMPHOTERICIN B] | 1 µg/mL (≈ 1.08 µM) | 2 µg/mL (≈ 2.16 µM) | 2 µg/mL (≈ 2.16 µM) | 1 µg/mL (≈ 1.08 µM) | – | – | 1 µg/mL (≈ 1.08 µM) | 1 µg/mL (≈ 1.08 µM) | 4 µg/mL (≈ 4.33 µM) |
